Measured values: patent US11458132B2, “Quinolin-2(1H)-one inhibitors of Late SV40 Factor” (TRUSTEES OF BOSTON UNIVERSITY, priority 2020, dated 2022)

What was measured:
[1] = system: FH-B cells; test: Cell cycle analysis by flow cytometry; type: cell-based, human; details: asynchronous FH-B cells, 4 μM FQI1, 1 hour
Method: Cell cycle analysis by flow cytometry: After trypsinization, subsequent steps prior to staining were performed at 4° C. Cells in PBS were transferred dropwise into ethanol (final concentration of 70%) for overnight incubation. Fixed cells were washed with PBS and then incubated in 50 μg/ml propidium iodide and 10 μg/ml RNase A in PBS for 45 minutes at room temperature. After passage through a cell strainer, cell fluorescence was measured using a Becton Dickinson FACSCalibur. Ten thousand events were counted per sample. Histogram plots were generated using FlowJo.

[2] = molecular target: T1, LSF and β-catenin (Homo sapiens, UniProt Q12800); test: Immunoprecipitation of β-catenin probed for LSF in CRC cells; type: cell-based; details: 1 μM, 16 hours, HT-29 and HCT-116 cells
T1 construct: In both these cell lines, LSF co-immunoprecipitated with β-catenin; endogenous in cells; host or cells: HT-29 and HCT-116
T1 sequence (Q12800 1-502): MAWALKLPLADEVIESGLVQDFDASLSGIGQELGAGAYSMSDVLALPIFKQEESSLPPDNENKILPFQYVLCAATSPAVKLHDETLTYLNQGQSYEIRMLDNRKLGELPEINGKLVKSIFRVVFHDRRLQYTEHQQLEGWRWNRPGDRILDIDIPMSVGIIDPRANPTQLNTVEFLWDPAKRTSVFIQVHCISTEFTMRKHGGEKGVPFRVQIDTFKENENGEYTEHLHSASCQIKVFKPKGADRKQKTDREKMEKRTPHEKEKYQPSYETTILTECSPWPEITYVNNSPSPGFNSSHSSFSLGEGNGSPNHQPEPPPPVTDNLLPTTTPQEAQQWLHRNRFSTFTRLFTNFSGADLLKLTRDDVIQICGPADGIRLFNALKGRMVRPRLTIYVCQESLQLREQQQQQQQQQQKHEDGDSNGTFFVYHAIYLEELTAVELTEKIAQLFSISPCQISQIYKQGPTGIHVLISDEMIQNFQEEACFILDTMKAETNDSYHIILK
From the text: Immunoprecipitation: The CRC cells were harvested. Proteins of interest were immunoprecipitated using the indicated antibodies at 1:100 concentration. The eluents were resolved by SDS polyacrylamide gel electrophoresis and probed with the indicated antibodies. All the antibodies for immunoblot and immunoprecipitation were acquired from Cell Signaling and were used at the recommended concentrations.

[3] = system: HT-29 cells; test: Allogeneic HT-29 xenograft model in athymic mice; type: in vivo
From the text: Syngeneic and allogeneic xenograft models: We used 8-12 weeks-old athymic female mice for the allogeneic xenograft model and C57BL/6 mice for a syngeneic xenograft model, as described previously^26,27. All the mice were obtained from The Jackson Laboratory and housed at Boston University Medical Center based on the approval from the Institutional Animal Care and Use Committee. Each mouse was implanted subcutaneously on the dorsal surface and was monitored for tumor growth as measured with a VWR Digital Caliper. The tumor volume was calculated twice a week using the equation: length×width×height.
The mice were randomly separated into two groups once tumor volumes reached 100 mm^3. The FQI2-34 was suspended in a mixture of ethanol and DMSO. The mixture was agitated until the compound had completely dissolved. This solution was further diluted in 20% PEG 400 and water to give a final concentration of 2 mg/ml. FQI2-34 or vehicle was injected intraperitoneally daily at 5 mg/kg for 5 days, followed by a break for 2 days. After 21 days, both groups of mice were sacrificed, and the tumors were harvested.
Cell culture and other reagents: HT-29 cells were obtained from ATCC and grown in the Roswell Park Memorial Institute (RPMI) medium supplemented with 10% FBS and penicillin and streptomycin. Cells were injected with the growth-factor poor Matrigel (Millipore, catalogue number DLW354263) using a 23-gauge needle for a total volume of 200 microliters. The MC38 cell line was obtained from ATCC and grown in RPMI medium supplemented with 10% FBS and penicillin and streptomycin.
IHC was performed on the paraffin-embedded tumors as described previously^26-28. The manufacturer's protocol was used along with reagents from the Abcam Mouse and Rabbit Specific HRP/DAB IHC Detection Kit—Micro-polymer (ab236466). Primary antibodies and their dilutions used to detect the respective proteins were: Axin2 (Abcam, #ab32197, 1:100), β-catenin (BD Biosciences, #610154, 1:100), LSF (BD Biosciences, #610818, 1:100), SOX9 (Abcam, #ab185230, 1:100), Ki-67 (Cell Signaling, #8D5, 1:100). […]
All images and quantification were performed using the Nikon Eclipse TE2000 Inverted Microscope with the color camera at the Boston University School of Medicine (BUSM) Imaging Core. Random high-power field (hpf) images of every tumor sample were obtained. For quantification the signal was converted to grayscale, and the number and intensity of pixels were analyzed as integrated density by using Fiji. The integrated density of all the images was normalized to its area. The images were processed in ImageJ (National Institutes of Health, Bethesda, Md.) to quantitate the expression of SOX-9, AXIN-2, and LSF. Regions of interest were drawn and the expression was measured using integrated density normalized to the surface area. The average normalized integrated image densities from multiple hpfs were used to perform the correlational analysis between expression levels of pairs of proteins.

[4] = xenografts, immunohistochemistry

| SMILES | cell cycle phases by cellular DNA profiling [1] | interaction of LSF and β-catenin (co-immunoprecipitation) [2] | tumor volumes compared to controls ([3]; day 9, day 12 and day 17) | histopathological analysis of tumors (H & E) ([3]; day 21) | tumor volume, treated versus control ([3]; day 21) [times] | tumor volume ([3]; day 21, 5 mg/kg intraperitoneally daily for 5 days each week) [mm^3] | AXIN2, CCND1 and SOX9 by quantitative RT-PCR ([3]; xenograft lysates at end of treatment) | increase in TUNEL-positive cells ([3]; xenografts) [fold] | CRC cells with nuclear β-catenin, lower than control [3, 4] [fold] | downregulation of Ki-67 [3, 4] [fold] | reduction in AXIN2 (integrated density) [3, 4] [fold] | reduction in SOX9 (integrated density) [3, 4] [fold] |
| --- | --- | --- | --- | --- | --- | --- | --- | --- | --- | --- | --- | --- |
| CCOc1ccccc1C1CC(=O)Nc2cc3c(cc21)OCO3 (stereo not drawn) [FQI1, 8-(2-ethoxyphenyl)-7,8-dihydro-[1,3]dioxolo[4,5-g]quinolin-6(5H)-one] | no apparent shift in cell cycle phases | – | – | – | – | – | – | – | – | – | – | – |
| CCOc1cc(N(C)C)ccc1-c1cc(=O)[nH]c2cc3c(cc12)OCO3 [FQI2-34, 8-(4-(dimethylamino)-2-ethoxyphenyl)-[1,3]dioxolo[4,5-g]quinolin-6(5H)-one] | – | consistently reduced this interaction | significantly lower tumor volumes | lower tumor mass organized in luminal regions interspersed within the interstitium | 2 | 1120±193 | significantly downregulated | 1.8 | 4 | 4.2 | 5 | 3.2 |
